Reference: US10206909B2, “3-(1H-pyrrolo[2,3-B]pyridin-2-yl)-1H-pyrazolo[4,3-B]pyridines and therapeutic uses thereof” (Samumed, LLC, priority 2015, dated 2019)
pEC50: −log10 of the molar value.

What was measured:
Type in all cases: cell-based
[1] = test system: SW480 colon cancer cells; assay: Cell viability assay (CellTiter-Blue); conditions: Homo sapiens, 96 h; SW480 cell viability, four days, CellTiter-Blue
Description: Representative compounds were screened using the following assay procedure to assess the effect on cell viability as described below.
Each compound was dissolved in DMSO as a 10 mM stock and used to prepare compound source plates. Serial dilution (1:3, 8-point dose-response curves from 10 μM to 0.0045 μM) and compound transfer was performed using the ECHO 550 (Labcyte, Sunnyvale, Calif.) into 96-well clear bottom, black-walled plates (Corning-Costar).
Approximately 2×10^3 SW480 colon cancer cells were seeded into each well and allowed to incubate in the presence or absence of compound for four days at 37° C./5% CO2. Eight replicates of DMSO-treated cells served as controls and cells treated with compound were performed in duplicate.
After incubation, 20 μL of CellTiter-Blue (Promega) was added to each well allowed to incubate for approximately 3 hours. This reagent was a buffered solution which contains resazurin, metabolically active cells were able to reduce rezarurin (blue) into resorufin (pink) which was highly fluorescent. This measured fluorescence was used as a readout for cell viability.
After incubation, the plates were read at Ex 560 nm Em 590 nm (Cytation 3, BioTek). Dose-response curves were generated and EC50 concentration values were calculated using non-linear regression curve fit in the GraphPad Prism (San Diego, Calif.) or Dotmatics' Studies Software (Bishops Stortford, UK). For EC50 of >10 μM, the percent inhibition at 10 μM is provided.

[2] = test system: primary human fibroblasts derived from IPF patients (LL29 cells); assay: Inhibition of the fibrotic process: αSMA staining in TGF-β1 treated fibroblasts; conditions: Fibroblast, 96 h, LL29 cells, TGF-β1 20 ng/mL, 4 days, % αSMA positive cells
From the text: Representative compounds were screened using primary human fibroblasts (derived from IPF patients) treated with TGF-β1 to determine their ability to inhibit the fibrotic process.
Human Fibroblast Cell Culture: Primary human fibroblasts derived from IPF patients (LL29 cells) [^1Xiaoqiu Liu, et. al., “Fibrotic Lung Fibroblasts Show Blunted Inhibition by cAMP Due to Deficient cAMP Response Element-Binding Protein Phosphorylation”, Journal of Pharmacology and Experimental Therapeutics (2005), 315(2), 678-687; ^2Watts, K. L., et. al., “RhoA signaling modulates cyclin D1 expression in human lung fibroblasts; implications for idiopathic pulmonary fibrosis”, Respiratory Research (2006), 7(1), 88] were obtained from American Type Culture Collection (ATCC) and expanded in F12 medium supplemented with 15% Fetal Bovine Serum and Penicillin/Streptomycin.
Compound Screening: Each compound was dissolved in DMSO as a 10 mM stock and used to prepare compound source plates. Serial dilution (1:2, 11-point dose-response curves from 10 μM to […]) and compound transfer was performed using the ECHO 550 (Labcyte, Sunnyvale, Calif.) into 384-well clear bottom assay plates (Greiner Bio-One) with appropriate DMSO backfill for a final DMSO concentration of 0.1%. LL29 cells are plated at 1,500 cells/well in 80 μL/well F12 medium supplemented with 1% Fetal Bovine Serum. One hour after addition of the cells, TGF-β1 (Peprotech; 20 ng/mL) was added to the plates to induce fibrosis (ref. 1 and 2 above). Wells treated with TGF-β1 and containing DMSO were used as controls. Cells were incubated at 37° C. and 5% CO2 for 4 days. Following incubation for 4 days, SYTOX green nucleic acid stain (Life Technologies [Thermo Fisher Scientific]) was added to the wells at a final concentration of 1 μM and incubated at room temperature for 30 min. Cells were then fixed using 4% formaldehyde (Electron Microscopy Sciences), washed 3 times with PBS followed by blocking and permeabilization using 3% Bovine Serum Albumin (BSA; Sigma) and 0.3% Triton X-100 (Sigma) in PBS. Cells were then stained with antibody specific to α-smooth muscle actin (αSMA; Abcam) (ref. 1 and 2 above) in 3% Bovine Serum Albumin (BSA; Sigma) and 0.3% Triton X-100 (Sigma) in PBS, and incubated overnight at 4° C. Cells were then washed 3 times with PBS, followed by incubation with Alexa Flor-647 conjugated secondary antibody (Life Technologies [Thermo Fisher Scientific]) and DAPI at room temperature for 1 hour. Cells were then washed 3 times with PBS and plates were sealed for imaging. αSMA staining was imaged by excitation at 630 nm and emission at 665 nm and quantified using the Compartmental Analysis program on the CellInsight CX5 (Thermo Scientific). Dead or apoptotic cells were excluded from analysis based on positive SYTOX green staining. % of total cells positive for αSMA were counted in each well and normalized to the average of 11 wells treated with TGF-β1 on the same plate using Dotmatics' Studies Software. The normalized averages (fold change over untreated) of 3 replicate wells for each compound concentration were used to create dose-responses curves and EC50 values were calculated using non-linear regression curve fit in the Dotmatics' Studies Software. For EC50 of >10 μM, the percent inhibition at 10 μM is provided.

[3] = test system: IL-6 (THP-1 cells); assay: IL-6 inhibition in LPS-stimulated THP-1 cells (HTRF); conditions: Homo sapiens; THP-1 cells, LPS 500 ng/mL, 22 hours, IL6 HTRF
Description: Human Monocyte Cell Culture: Human monocyte cell line (THP-1 cells; Catalog # TIB-202, ATCC, Manassas, Va.) were cultured in Roswell Park Memorial Institute (RPMI) 1640 Medium (Catalog #21870-100, Buffalo, N.Y.) with 1% L-glutamine, 1% HEPES, 1% Sodium Pyruvate, 2% Sodium Bicarbonate supplemented with 100 units/mL penicillin, 50 μg/mL streptomycin, 2-mercaptoethanol (0.05 mM) [basal medium] and 10% fetal bovine serum (Catalog #16140089, Life Technologies, Carlsbad, Calif.) at 37° C. and 5% CO2.
Compound Screening: THP-1 cells were cultured in basal media with 1% FBS for 24 hours before the start of the assay. Each compound was dissolved in DMSO as a 10 mM stock and used to prepare compound source plates. Serial dilution (1:3, 10-point dose-response curves starting from 10 μM) and compound transfer was performed using the ECHO 550 (Labcyte, Sunnyvale, Calif.) into 384-well white low volume assay plates (Greiner Bio-One) with appropriate DMSO backfill for a final DMSO concentration of 0.1%. THP-1 cells were plated at 5000 cells/well in the 384-well plates and incubated at 37° C. for 2 h. 500 ng/mL of LPS was added after 2 hours and cells were incubated for another 22 hours at 37° C. Plates were spun in a centrifuge for 1 minute at […] and a mixture of anti-IL6 XL665, and anti-IL6 Cryptate diluted in reconstitution buffer (Cisbio Inc.) was added to each well. Following incubation for 3 hrs at room temperature, Homogeneous Time-Resolved Fluorescence (HTRF) was measured using the Envision (Perkin Elmer) at 665 nm and […]. The ratio of fluorescence at 665 nm to 620 nm was used as a readout for IL6 quantification. All samples were processed in duplicate. Readings were normalized to DMSO treated cells and normalized activities were utilized for EC50 calculations using the dose-response log (inhibitor) vs. response —variable slope (four parameters) nonlinear regression feature available in GraphPad Prism 5.0 (or Dotmatics). For EC50 of >10 μM, the percent inhibition at 10 μM is provided.

[4] = test system: Wnt activity (Sp5-Luc reporter, SW480 colon carcinoma cells); assay: Wnt activity screening assay: Sp5-Luc reporter gene assay in SW480 cells; conditions: Homo sapiens, SW480 cells, overnight incubation
From the text: The screening assay for Wnt activity is described as follows. Reporter cell lines can be generated by stably transducing cancer cell lines (e.g., colon cancer) or primary cells (e.g., IEC-6 intestinal cells) with a lentiviral construct that includes a Wnt-responsive promoter driving expression of the firefly luciferase gene.
SW480 colon carcinoma cells were transduced with a lentiviral vector expressing luciferase with a human Sp5 promoter consisting of a sequence of eight TCF/LEF binding sites. SW480 cells stably expressing the Sp5-Luc reporter gene and a hygromycin resistance gene were selected by treatment with 150 μg/mL of hygromycin for 7 days. These stably transduced SW480 cells were expanded in cell culture and used for all further screening activities. Each compound was dissolved in DMSO as a 10 mM stock and used to prepare compound source plates. Serial dilution (1:3, 10-point dose-response curves starting from 10 μM) and compound transfer was performed using the ECHO 550 (Labcyte, Sunnyvale, Calif.) into 384-well white solid bottom assay plates (Greiner Bio-One) with appropriate DMSO backfill for a final DMSO concentration of 0.1%. For Sp5-Luc reporter gene assays, the cells were plated at 4,000 cells/well in 384-well plates with medium containing 1% fetal bovine serum and incubated overnight at 37° C. and 5% CO2. Following incubation, 20 μl of BrightGlo luminescence reagent (Promega) was added to each well of the 384-well assay plates. The plates were placed on an orbital shaker for 2 min and then luminescence was quantified using the Envision (Perkin Elmer) plate reader. Readings were normalized to DMSO only treated cells, and normalized activities were utilized for EC50 calculations using the dose-response log (inhibitor) vs. response -variable slope (four parameters) nonlinear regression feature available in GraphPad Prism 5.0 (or Dotmatics). For EC50 of >10 μM, the percent inhibition at 10 μM is provided.

CC(C)Nc1cncc(-c2ccc3[nH]nc(-c4cc5c(-c6cccs6)ccnc5[nH]4)c3n2)c1 [Compound 348, N-Isopropyl-5-(3-(4-(thiophen-2-yl)-1H-pyrrolo[2,3-b]pyridin-2-yl)-1H-pyrazolo[4,3-b]pyridin-5-yl)pyridin-3-amine] was tested. Which pEC50 [1] did it give?
The pEC50 was 5.37.

What about the pEC50 [2] of the same compound?
The pEC50 was 6.00.

What about the pEC50 [3] of the same compound?
Its pEC50 is 5.87.

And the pEC50 [4]?
The pEC50 was 5.87.

With CN(C)CCNc1cc(F)cc(-c2ccnc3[nH]c(-c4n[nH]c5ccc(-c6cncc(NC(=O)c7ccccc7)c6)nc45)cc23)c1 [Compound 459, N-(5-(3-(4-(3-((2-(Dimethylamino)ethyl)amino)-5-fluorophenyl)-1H-pyrrolo [2,3-b]pyridin-2-yl)-1H-pyrazolo[4,3-b]pyridin-5-yl)pyridin-3-yl)benzamide] as the compound, how does the pEC50 [1] read?
Its pEC50 is 5.71.

And the pEC50 [2]?
The pEC50 was 6.13.

And the pEC50 [3]?
Its pEC50 is 8.05.

And the pEC50 [4]?
Its pEC50 is 5.82.
